What was measured:
LD50 in albino rats = settings: rat, in vivo, albino rats of 20±1 g
rats = assay: Open field experiment, explorative activity of rat puppies on the 21st day of life; type: in vivo
Description: (§1) The study has been performed with 16 couples of the rats Charles River in their reproductive age, selected by uniform weight. On the third day of gestation they have been arbitrarily divided into 4 groups. […] Dietetic treatment have been continued during the entire periods of gestation and nursing.
(§2) Between the 14th and the 21st day of the life, the puppies of the 2nd and the 4th group have been treated with 20 mg/kg of CMP-NANA (Sigma Chemical Co.) i.p., the 1st and the 3rd group have been treated with the equal volume of physiological solution.
(§3) On the 21st day two male puppies from each group have been fixed on the holed table and for 20 minutes placed under the open field experiment. The periods related to the explorative activity have been observed and quantified. At the end of the experiment, the animals have been sacrified by decapitation, and their brains have been removed and examined for the content of the gangliosides (extractions performed by the method of G. Tettamanti et al., Biochim. Biophys. Acta 296, 160-170 (1973) as well as of the glycoproteins (extractions by the method of B. Berra et al., in Membranes in Tumor Growth, Galeotti et al., Eds., Elsevier, pp. 81-87, 1982; F. Omodeo Sale et al., Cell Mol. Biol. 27, 455-458, 1981).

Cerebral gangliosides = Cerebral gangliosides content (NANA) in rats on the 21st day of life; type: in vivo, rat
Excerpt: The study has been performed with 16 couples of the rats Charles River in their reproductive age, selected by uniform weight. On the third day of gestation they have been arbitrarily divided into 4 groups. The two first groups have been fed with a semisynthetic diet that contained 10% of casein. Dietetic treatment have been continued during the entire periods of gestation and nursing.
as §2, §3
(§4) In both cases the content of NANA has been determined.

Cerebral glycoproteins = Cerebral glycoproteins content (NANA) in rats on the 21st day of life; type: in vivo, rat
Description: as §1, §2, §3, §4

Striatal gangliosides = assay: Levels of striatal gangliosides of the rat following injuries by kainic acid; type: in vivo
Description: Male rats, Charles River CD, body weight of 180-200 g, have been divided into 4 groups, each group having 20 animals. The first group has been classified as the control group, the second group has been treated with physiological solution, the third group has been treated with kainic acid and the fourth group has been treated with CMP-NANA (20 mg/kg/day, i.p.) and kainic acid.
The treatment with CMP-NANA has been started one week before the treatment with kainic acid and has been continued until the animals have been sacrified.
The animals have been anesthetized with pentobarbital (60 mg/kg i.p.) and then treated with kainic acid (2 μg in 1 μl of the physiological solution), that has been injected into striatum.
The control rats have been treated with an equal volume (1 μl) of the physiological solution.
After 7 days the rats have been sacrified and the striatum has been removed. Each single determination has been performed with the pool of 5 samples. The gangliosides have been extracted and determined (as NANA content) as described previously.

Neuro-2a cells = assay: CMP-NANA-induced neurite formation (sprouting) in cultured cells; type: cell-based
Description: Neuro-2a cells (American Type Culture Collection, Rockville, USA) were seeded at standard conditions (10^4 -10^6 cells/100 mm dish). Incubation time for quantification of sprouting was 24 hours. Thereafter fixation of the cells was performed by means of 3% glutaraldehyde containing buffered saline. Quantitative determination of nerve cell growth was performed with Zeiss D-7082 Micreo-Videomat.
Neurite sprouting was used as the parameter for nerve cell differentiation. The samples fixed in formaline were stained for better contrast.

[1] = test system: Neuro-2a neurine neuroblastoma; assay: In vitro neuronal maturation, index of maturation of neuroblastoma cells; type: cell-based; settings: for Index of maturation (I.M.): standard media 10 ± 2, I.M. = L.P. × N.P.
Description: Neuro-2a neurine neuroblastoma (American Type Culture Collection-CCL 131) was grown in the medium consisting of fecal calf serum (Irvine Scientific, Irvine, Ca.), to which non-essential amino acids, antibiotic (5-20 mg %), and bicarbonate (50-100 mg %), were added. The cells were grown routinely on corning plastic tissue-culture flasks.
Cells for assay were plated on corning plastic Petri dishes, in the medium with or without CMP-NANA. In order to examine the role of CMP-NANA on in vitro neuron maturation, it was incorporated into the culture media at the time of plating or 24 or 48 hours postplating. The mean number and length of cell processes were repeatedly determined for a minimum of 100 cells per treatment group, to provide a semiquantitative index of neuron maturation (Table 5).
Index of maturation (I.M.) in Table 5 is expressed as: I.M.=L.P.×N.P., where:
L.P. 10:=the length of process to nearest 10μ
N.P.=Total number of processes
The effects of the various concentrations of CMP-NANA were evaluated with high resolution Nomarski optics.

Storage stability = type: physicochemical; settings: powder, -10° C.
Description: A 20 ml aliquot (containing about 8000 units of the enzyme) of the enzyme, CTP (4-5 mmol), N-acetylneuraminic acid (1 mmol) were added in portions, during 2 hours, to the solution (200 ml) of Tris-buffer, Mg^+2, and β-thio-propionic acid. The last three components were present in the concentrations 0.4, 0.04, and 0.002M, respectively. The mixture was incubated at 36°±0.2° C. for 6 hours, then diluted 8 times with water and rised slowly through a column of Dowex 1×4, bicarbonate form, 50-100 mesh (0.6 l resin/mmol of I). First washing was performed with 1 mM ammonium hydroxide, then with 3-4 vol. of a linear gradient from 0.02-2.0M triethylammonium hydrogencarbonate, pH 7.8.

Acid hydrolysis at pH 1 = type: physicochemical; settings: pH 1, 10 min, room temperature
Description: [α]D =-11.8° (c=0.2, water).

[2] = normal and hypoproteinic diet, 20 mg/kg i.p.

CC(=O)N[C@H]1[C@H]([C@H](O)[C@H](O)CO)O[C@](OP(=O)(O)OC[C@H]2O[C@@H](n3ccc(N)nc3=O)[C@H](O)[C@@H]2O)(C(=O)O)C[C@@H]1O [CMP-NANA, cytidine monophosphate of 5-acetamido-3,5-dideoxy-D-glycero-D-galactononulosaminic acid]
LD50 (LD50 in albino rats; ip, intraperitoneal): 900 mg/kg
LD50 (LD50 in albino rats; po, per os): 2400 mg/kg
Explorative activity (rats; Group 2: 20% casein + CMP-NANA 20 mg/kg i.p., relative to 2nd group = 100% (reference), p < 0.01-0.001 vs nontreatment (Group 1: 47)): 100%
Explorative activity (rats; Group 4: 10% casein + CMP-NANA 20 mg/kg i.p., relative to 2nd group = 100%, p < 0.01-0.001 vs nontreatment (Group 3: 12)): 52%
explorative activity (in words) (rats; [2]): inhanced in statistically significant manner
Cerebral gangliosides (Cerebral gangliosides; Group 2: 20% casein + CMP-NANA 20 mg/kg i.p., relative to 2nd group = 100% (reference), p < 0.01-0.001 vs nontreatment (Group 1: 75)): 100%
Cerebral gangliosides (Cerebral gangliosides; Group 4: 10% casein + CMP-NANA 20 mg/kg i.p., relative to 2nd group = 100%, p < 0.01-0.001 vs nontreatment (Group 3: 41)): 68%
NANA content in the cerebral gangliosides (in words) (Cerebral gangliosides; [2]): inhanced in statistically significant manner
Cerebral glycoproteins (Cerebral glycoproteins; Group 2: 20% casein + CMP-NANA 20 mg/kg i.p., relative to 2nd group = 100% (reference), p < 0.01-0.001 vs nontreatment (Group 1: 79)): 100%
Cerebral glycoproteins (Cerebral glycoproteins; Group 4: 10% casein + CMP-NANA 20 mg/kg i.p., relative to 2nd group = 100%, p < 0.01-0.001 vs nontreatment (Group 3: 69)): 75%
NANA content in the cerebral glycoproteins (in words) (Cerebral glycoproteins; [2]): inhanced in statistically significant manner
level of gangliosides in the striatum (in words) (Striatal gangliosides; CMP-NANA 20 mg/kg/day i.p. with kainic acid): hindered the diminuation of the level of gangliosides in the striatum
Striatal gangliosides (NANA content) (Striatal gangliosides; Group 4: kainic acid (2 μg into striatum) and CMP-NANA 20 mg/kg/day i.p., relative to control = 100%): 88%
sprouting of the nerves (in words) (Neuro-2a cells; 50 μg/ml): nearly doubled
dose-response relationship for number of neurites (in words) (Neuro-2a cells; 5-50 μg/ml, 24 hours): close dose-response relationship
increase of sprouting above the original steady-state value (Neuro-2a cells; 30 μ/ml (so in the source)): ~50%
activity at 5 µg/mL (Neuro-2a cells; Mus musculus, N2a, 5 μg/ml, 24 hours, 0 μg/ml = 100 ± 15, read-out: Extent of sprouting): 110 ± 15%
activity at 10 µg/mL (Neuro-2a cells; Mus musculus, N2a, 10 μg/ml, 24 hours, 0 μg/ml = 100 ± 15, read-out: Extent of sprouting): 117 ± 20%
activity at 20 µg/mL (Neuro-2a cells; Mus musculus, N2a, 20 μg/ml, 24 hours, 0 μg/ml = 100 ± 15, read-out: Extent of sprouting): 132 ± 25%
activity at 30 µg/mL (Neuro-2a cells; Mus musculus, N2a, 30 μg/ml, 24 hours, 0 μg/ml = 100 ± 15, read-out: Extent of sprouting): 145 ± 30%
activity at 50 µg/mL (Neuro-2a cells; Mus musculus, N2a, 50 μg/ml, 24 hours, 0 μg/ml = 100 ± 15, read-out: Extent of sprouting): 178 ± 35%
change of I.M. versus standard media (in words) ([1]; 2 μg/ml): doubled
change of I.M. versus standard media (in words) ([1]; 20 μg/ml): ten time higher
Index of maturation (I.M.) ([1]; SM + 1 μg/ml): 20 ± 5
Index of maturation (I.M.) ([1]; SM + 5 μg/ml): 45 ± 5
Index of maturation (I.M.) ([1]; SM + 10 μg/ml): 68 ± 10
Index of maturation (I.M.) ([1]; SM + 20 μg/ml): 92 ± 10
storage stability (Storage stability): at least one year
hydrolysis in acid (Acid hydrolysis at pH 1): affording CMP and N-acetylneuraminic acid (1.0:1.0 mol)

— patent US4704361A, “Pharmaceutical compositions containing the cytidine monophospate of 5-acetamido-3,5-dideoxy-D-glycero-D-galactononulosaminic acid and a method for preparing said compound” (Compagnia di Ricerca Chimica S.p.A., priority 1983, dated 1987)
